Source: US12473289B2, “Heterocyclic compounds as delta-5 desaturase inhibitors and methods of use” (Amgen Inc., priority 2019, dated 2025)

Legend:
Delta-5-Desaturase (D5D) [1] = target: Delta-5-Desaturase (D5D) (Mus musculus (Mouse), UniProt Q920L1); experiment: In vivo measurement of Delta-5-Desaturase inhibitory activity (plasma AA/DGLA ratio in DIO mice); settings: single oral dose 30 mg/kg, read-out: Average % D5D Inhibition expressed as Plasma Endogenous AA/DGLA Ratio
Description: In vivo Measurement of Delta-5-Desaturase Inhibitory Activity
Diet-induced obese (DIO; Jackson Laboratories strain #3800050) mice were used to screen for pharmacodynamic (PD) activity of test compounds. Generally, 14 to 24 week old DIO mice, were administered test compounds formulated in the vehicle of 2% hydroxypropyl methylcellulose (HPMC) and 1% Tween80. Animals were dosed on body weight by oral gavage with a single dose (30 mg/kg) for PD studies. Necropsy included plasma collection for PUFA analysis. 10 μl of plasma or standards diluted in surrogate matrix (65 g/l bovine serum albumin in Dulbecco's phosphate-buffered saline) were mixed with 10 μl of an internal standard (100 μM alpha-linolenic acid-d14 (ALA-d14, Cayman Chemical)) in a 96 well plate. 100 μl of 2N NAOH was added to the mixture for subsequent saponification at 65° C. for 1 hour. The mixture was then acidified with 50 μl of formic acid followed by two consecutive hexane extractions. Hexane (500 μl) was added and the mixture thoroughly mixed by vortexing, followed by centrifugation at 4,000 rpm for 15 min. The hexane phase was transferred to a new 1 ml 96 well plate and the remaining aqueous layer was extracted with hexane. The organic extracts were combined and the solvent was removed by placing the plate under nitrogen gas at 55° C. 250 μl of 90% methanol was added to the plate followed by vortexing for 2 minutes. 200 μl of the samples were transferred to a new 96 well polypropylene plate. The samples were analyzed on a LC-MS/MS for the following PUFAs: arachidonic acid (AA), dihomo-gamma-linolenic acid (DGLA), with ALA-d14 as the internal standard. Description of the LC-MS/MS method: 5 μl of sample was injected onto a Poroshell 120 EC-C18 3.0×50 mm, 1.9 μm id column. […] The PUFA peak areas were quantified by using the SCIEX Analyst software. […] The relative decrease of the AA/DGLA ratio of the test compound administered group relative to the vehicle administered group was calculated and used as an index for the degree of D5D inhibition.
The results presented in Table 27 were obtained using certain compounds described herein in the in vivo protocol described above.

Delta-5-Desaturase (D5D) [2] = target: Delta-5-Desaturase (D5D) (Homo sapiens (Human), UniProt O60427); experiment: In vitro measurement of Delta-5-Desaturase inhibitory activity using DGLA-CoA and Arachidonyl-CoA mass spectrometric assays; format: biochemical; settings: membrane preparations of D5D-overexpressing HEK293 6E cells; averaged over at least two independent runs
Sequence of Delta-5-Desaturase (D5D) (Homo sapiens (Human), UniProt O60427) (O60427 whole entry, species assumed): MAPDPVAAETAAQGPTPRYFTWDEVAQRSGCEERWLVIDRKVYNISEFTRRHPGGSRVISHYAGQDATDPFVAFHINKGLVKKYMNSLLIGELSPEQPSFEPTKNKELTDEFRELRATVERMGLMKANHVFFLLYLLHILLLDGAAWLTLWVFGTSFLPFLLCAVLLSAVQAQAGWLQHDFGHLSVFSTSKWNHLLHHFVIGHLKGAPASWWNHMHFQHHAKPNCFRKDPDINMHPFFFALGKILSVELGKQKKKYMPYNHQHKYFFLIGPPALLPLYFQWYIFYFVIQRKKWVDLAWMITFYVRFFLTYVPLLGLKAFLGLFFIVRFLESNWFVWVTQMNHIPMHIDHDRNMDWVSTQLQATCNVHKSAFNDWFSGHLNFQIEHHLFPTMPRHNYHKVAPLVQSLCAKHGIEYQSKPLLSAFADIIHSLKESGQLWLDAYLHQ
Procedure, shortened: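 DGLA-CoA and arachidonyl-CoA were read by RapidFire SPE triple-quad MS (negative mode, MRM) after a 1 h ambient-temperature reaction quenched with acetonitrile. Enzyme was D5D-overexpressing HEK293 6E membranes at 10 μg/mL final; substrate solution held 0.01 mM DGLA plus NADH, ATP and CoA. Inhibition was referenced to DMSO and no-enzyme wells; 4PL IC50.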

Sequence of Delta-5-Desaturase (D5D) (Mus musculus (Mouse), UniProt Q920L1) (Q920L1 whole entry): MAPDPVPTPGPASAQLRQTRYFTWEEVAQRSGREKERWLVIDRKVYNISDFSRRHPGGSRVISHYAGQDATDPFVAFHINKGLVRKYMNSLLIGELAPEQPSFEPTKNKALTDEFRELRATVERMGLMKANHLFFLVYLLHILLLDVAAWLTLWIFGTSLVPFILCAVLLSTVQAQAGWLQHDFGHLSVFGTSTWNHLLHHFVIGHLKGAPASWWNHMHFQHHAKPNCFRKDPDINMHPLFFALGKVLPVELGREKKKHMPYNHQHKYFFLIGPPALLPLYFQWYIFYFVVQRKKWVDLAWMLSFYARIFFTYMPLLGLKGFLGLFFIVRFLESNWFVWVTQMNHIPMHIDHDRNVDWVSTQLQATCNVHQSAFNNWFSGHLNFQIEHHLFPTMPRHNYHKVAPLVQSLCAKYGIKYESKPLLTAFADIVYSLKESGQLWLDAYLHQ

Row | inhibition in vivo at 30 mg/kg (Delta-5-Desaturase (D5D) [1]) [%] | IC50 (Delta-5-Desaturase (D5D) [2]) [µM] | Compound
1 | 72 | 0.022 | COc1ccn2c(=O)c(-c3ccc(OCC(F)(F)F)c(F)c3)c(C(F)(F)F)nc2n1 [Example 1-73, 3-(3-fluoro-4-(2,2,2-trifluoroethoxy)phenyl)-8-methoxy-2-(trifluoromethyl)-4H-pyrimido[1,2-a]pyrimidin-4-one]
2 | 77 | 0.0296 | COc1ccn2c(=O)c(-c3cnn(CCCC(F)(F)F)c3)c(C(F)(F)F)nc2c1 [Example 1-75, 8-methoxy-3-(1-(4,4,4-trifluorobutyl)-1H-pyrazol-4-yl)-2-(trifluoromethyl)-4H-pyrido[1,2-a]pyrimidin-4-one]
3 | 75 | 0.0066 | CCc1nc2cc(OC)ccn2c(=O)c1-c1ccc(OCC(F)(F)F)cc1 [Example 1-77, 2-ethyl-8-methoxy-3-(4-(2,2,2-trifluoroethoxy)phenyl)-4H-pyrido[1,2-a]pyrimidin-4-one]
4 | 57 | 0.0125 | COc1ccn2c(=O)c(-c3ccc(OCC(F)(F)F)cc3)c(OC)nc2c1 [Example 1-80, 2,8-dimethoxy-3-(4-(2,2,2-trifluoroethoxy)phenyl)-4H-pyrido[1,2-a]pyrimidin-4-one]
5 | 44 | 0.0129 | CCOc1nc2cc(OC)ccn2c(=O)c1-c1ccc(OCC(F)(F)F)cc1 [Example 1-81, 2-ethoxy-8-methoxy-3-(4-(2,2,2-trifluoroethoxy)phenyl)-4H-pyrido[1,2-a]pyrimidin-4-one]
6 | 67 | 0.0342 | [2H]C([2H])([2H])Oc1ccn2c(=O)c(-c3cnn(CC(F)(F)C(F)(F)F)c3)c(C(F)(F)F)nc2n1 [Example 3-2, 8-(methyloxy-d3)-3-(1-(2,2,3,3,3-pentafluoropropyl)-1H-pyrazol-4-yl)-2-(trifluoromethyl)-4H-pyrimido[1,2-a]pyrimidin-4-one]
7 | 60 | 0.022 | COc1ccn2c(=O)c(-c3ccc(OCC(F)(F)F)cc3C)c(C(F)(F)F)nc2c1 [Example 4-3, 8-methoxy-3-(2-methyl-4-(2,2,2-trifluoroethoxy)phenyl)-2-(trifluoromethyl)-4H-pyrido[1,2-a]pyrimidin-4-one]
8 | 51 | 0.0148 | Nc1ccn2c(=O)c(-c3cnn(CC(F)(F)C(F)(F)F)c3)c(C(F)(F)F)nc2c1 [Example 6-1, 8-Amino-3-(1-(2,2,3,3,3-pentafluoropropyl)-1H-pyrazol-4-yl)-2-(trifluoromethyl)-4H-pyrido[1,2-a]pyrimidin-4-one]
9 | 60 | 0.027 | COc1ccn2c(=O)c(-c3ccc(OCC(F)(F)F)nc3)c(C(F)(F)F)nc2c1 [Example 7-4]
10 | 79 | 0.0116 | COc1ccn2c(=O)c(-c3ccc(O[C@@H](C)C#N)cc3)c(C(F)(F)F)nc2c1 [Example 8-9, (2S)-2-(4-(8-methoxy-4-oxo-2-(trifluoromethyl)-4H-pyrido[1,2-a]pyrimidin-3-yl)phenoxy)propanenitrile]
11 | 67 | 0.0113 | COc1ccn2c(=O)c(-c3ccc(OCC(C)(F)F)cc3)c(C(F)(F)F)nc2c1 [Example 9-2, 3-(4-(2,2-difluoropropoxy)phenyl)-8-methoxy-2-(trifluoromethyl)-4H-pyrido[1,2-a]pyrimidin-4-one]
12 | 74 | 0.0438 | O=c1ccn2c(=O)c(-c3ccc(OCC(F)(F)F)cc3)c(C(F)(F)F)[nH]c2c1 [Example 10-1, 3-(4-(2,2,2-Trifluoroethoxy)phenyl)-2-(trifluoromethyl)-4H-pyrido[1,2-a]pyrimidine-4,8(1H)-dione]
13 | 52 | 0.0684 | O=c1ccn2c(=O)c(-c3cnn(CC(F)(F)C(F)(F)F)c3)c(C(F)(F)F)nc2[nH]1 [Example 10-4, 7-(1-(2,2,3,3,3-pentafluoropropyl)-1H-pyrazol-4-yl)-8-(trifluoromethyl)-2H-pyrimido[1,2-a]pyrimidine-2,6(1H)-dione]
14 | 79 | 0.004 | [2H]C([2H])([2H])Oc1ccn2c(=O)c(-c3ccc(OCC(F)(F)F)cc3)c(C(F)(F)F)nc2c1 [Example 11-2, 8-(methyloxy-d3)-3-(4-(2,2,2-trifluoroethoxy)phenyl)-2-(trifluoromethyl)-4H-pyrido[1,2-a]pyrimidin-4-one]
15 | 37 | 0.0275 | CCOc1ccn2c(=O)c(-c3ccc(OCC(F)(F)F)cc3)c(C(F)(F)F)nc2c1 [Example 11-3, 8-ethoxy-3-(4-(2,2,2-trifluoroethoxy)phenyl)-2-(trifluoromethyl)-4H-pyrido[1,2-a]pyrimidin-4-one]
16 | 52 | 0.0239 | O=c1c(-c2cnn(CC(F)(F)C(F)(F)F)c2)c(C(F)(F)F)nc2cc(CO)ccn12 [Example 13-1, 8-(Hydroxymethyl)-3-(1-(2,2,3,3,3-pentafluoropropyl)-1H-pyrazol-4-yl)-2-(trifluoromethyl)-4H-pyrido[1,2-a]pyrimidin-4-one]
17 | 77 | 0.0056 | O=c1c(-c2ccc(OCC(F)(F)F)cc2)c(C(F)(F)F)nc2cc(CO)ccn12 [Example 13-3, 8-(hydroxymethyl)-3-(4-(2,2,2-trifluoroethoxy)phenyl)-2-(trifluoromethyl)-4H-pyrido[1,2-a]pyrimidin-4-one]
18 | 75 | 0.0094 | O=c1c(-c2ccc(OCC(F)(F)F)cc2)c(C(F)(F)F)nc2cc(CF)ccn12 [Example 13-4, 8-(fluoromethyl)-3-(4-(2,2,2-trifluoroethoxy)phenyl)-2-(trifluoromethyl)-4H-pyrido[1,2-a]pyrimidin-4-one]
19 | 73 | 0.0357 | Nc1ccn2c(=O)c(-c3ccc(OCC(F)(F)F)cc3)c(C(F)(F)F)nc2n1 [Example 14-2, 8-amino-3-(4-(2,2,2-trifluoroethoxy)phenyl)-2-(trifluoromethyl)-4H-pyrimido[1,2-a]pyrimidin-4-one]
20 | 70 | 0.0289 | COc1ccn2c(=O)c(-c3ccc(OC(C)(C)C#N)cc3)c(C(F)(F)F)nc2c1 [Example 24, 2-(4-(8-Methoxy-4-oxo-2-(trifluoromethyl)-4H-pyrido[1,2-a]pyrimidin-3-yl)phenoxy)-2-methylpropanenitrile]
21 | 71 | 0.0209 | COc1cc2nc(C(F)(F)F)c(-c3cnn(CC(F)(F)C(F)(F)F)c3)c(=O)n2cc1F [Example 33, 7-Fluoro-8-methoxy-3-[1-(2,2,3,3,3-pentafluoropropyl)-1H-pyrazol-4-yl]-2-(trifluoromethyl)-4H-pyrido[1,2-a]pyrimidin-4-one]
22 | 75 | 0.0038 | O=c1c(-c2cnn(CC(F)(F)C(F)(F)F)c2)c(C(F)(F)F)nc2ccc(Cl)cn12 [Example 35, 7-Chloro-3-[1-(2,2,3,3,3-pentafluoropropyl)-1H-pyrazol-4-yl]-2-(trifluoromethyl)-4H-pyrido[1,2-a]pyrimidin-4-one]
23 | 62 | 0.0101 | O=c1c(-c2cnn(CC(F)(F)C(F)(F)F)c2)c(C(F)(F)F)nc2cc(OCF)ccn12 [Example 45, 8-(Fluoromethoxy)-3-[1-(2,2,3,3,3-pentafluoropropyl)-1H-pyrazol-4-yl]-2-(trifluoromethyl)-4H-pyrido[1,2-a]pyrimidin-4-one]
